According to patent US9133167B2, “Antibacterial quinoline derivatives” (JANSSEN PHARMACEUTICA NV, priority 2012, dated 2015):
Converted amounts (≈) assume the structure as drawn. “And” between values parts separate entries of the source, which are not always exact repeats. Equal entries are not always repeated.

Key:
[1] = test system: Staphylococcus aureus (ATCC29213); assay: Microtitre plate assay, IC90 for bacterial growth, Staphylococcus aureus strain; assay type: cell-based; conditions: 90% inhibitory concentration for bacterial growth, 24 hours at 37° C., read-out: IC90 (μg/ml) STA B29213
Procedure: D.2. In-Vitro Method for Testing Compounds for Anti-Bacterial Activity Against a Non-Mycobacterial Strain
Preparation of Bacterial Suspensions for Susceptibility Testing:
The bacteria used in this study were grown overnight in flasks containing 100 ml Mueller-Hinton Broth (Becton Dickinson—cat. no. 275730) in sterile de-ionized water, with shaking, at 37° C. Stocks (0.5 ml/tube) were stored at −70° C. until use. Bacteria titrations were performed in microtiter plates to detect the TCID50, in which TCID50 represents the dilution that gives rise to bacterial growth in 50% of inoculated cultures. In general, an inoculum level of approximately 100 TCID50 was used for susceptibility testing.
Anti Bacterial Susceptibility Testing: IC90 Determination
Flat-bottom, sterile 96-well plastic microtiter plates were filled with 180 μl of sterile deionized water, supplemented with 0.25% BSA. Subsequently, stock solutions (7.8× final test concentration) of compounds were added in 45 μl volumes in column 2 Serial five-fold dilutions (45 μl in 180 μl) were made directly in the microtiter plates from column 2 to reach column 11. Untreated control samples with (column 1) and without (column 12) inoculum were included in each microtiter plate. Depending on the bacteria type, approximately 10 to 60 CFU per well of bacteria inoculum (100 TCID50), in a volume of 100 μl in 2.8× Mueller-Hinton broth medium, was added to the rows A to H, except column 12. The same volume of broth medium without inoculum was added to column 12 in row A to H. The cultures were incubated at 37° C. for 24 hours under a normal atmosphere (incubator with open air valve and continuous ventilation). At the end of incubation, one day after inoculation, the bacterial growth was quantitated fluorometrically. Therefore resazurin (0.6 mg/ml) was added in a volume of 20 μl to all wells 3 hours after inoculation, and the plates were re-incubated overnight. A change in colour from blue to pink indicated the growth of bacteria. The fluorescence was read in a computer-controlled fluorometer (Cytofluor Biosearch) at an excitation wavelength of 530 nm and an emission wavelength of 590 nm. The % growth inhibition achieved by the compounds was calculated according to standard methods. The IC90 (expressed in μg/ml) was defined as the 90% inhibitory concentration for bacterial growth. The results are shown in Table 7 for an assay using a Staphylococcus aureus strain.

[2] = test system: Mycobacterium smegmatis (ATCC607); assay: In-vitro anti-bacterial activity against strain M. smegmatis ATCC607 (Alamar Blue growth inhibition); assay type: cell-based; conditions: Mycolicibacterium smegmatis, 90% inhibitory concentration for bacterial growth, 48 hours at 37° C., read-out: IC90 (μg/ml) MSM 607
Procedure: D.1. In-Vitro Method for Testing Compounds for Anti-Bacterial Activity Against Strain M. Smegmatis ATCC607.
Flat-bottom, sterile 96-well plastic microtiter plates were filled with 180 μl of sterile deionized water, supplemented with 0.25% BSA. Subsequently, stock solutions (7.8× final test concentration) of compounds were added in 45 μl volumes to a series of duplicate wells in column 2 so as to allow evaluation of their effects on bacterial growth. Serial five-fold dilutions (45 μl in 180 μl) were made directly in the microtiter plates from column 2 to 11 using a customised robot system (Zymark Corp., Hopkinton, Mass.). Pipette tips were changed after every 3 dilutions to minimize pipetting errors with high hydrophobic compounds. Untreated control samples with (column 1) and without (column 12) inoculum were included in each microtiter plate. Approximately 250 CFU per well of bacteria inoculum, in a volume of 100 in 2.8× Mueller-Hinton broth medium, was added to the rows A to H, except column 12. The same volume of broth medium without inoculum was added to column 12 in row A to H. The cultures were incubated at 37° C. for 48 hours in a humidified 5% CO2 atmosphere (incubator with open air valve and continuous ventilation). At the end of incubation, two days after inoculation, the bacterial growth was quantitated fluorometrically. Therefore Alamar Blue (10×) was added to all wells in a volume of 20 and plates were incubated for another 2 hours at […]
The fluorescence was read in a computer-controlled fluorometer (Cytofluor, Biosearch) at an excitation wavelength of 530 nm and an emission wavelength of 590 nm (gain 30). The percentage growth inhibition achieved by the compounds was calculated according to standard methods and expressed as IC90 […] which defines the 90% inhibitory concentration for bacterial growth.

Row | Structure (SMILES) | IC90 [1] [µg/mL] | melting point | IC90 [2] [µg/mL]
1 | CCn1c(=O)c(C(c2ccc(Cl)cc2)C2(O)CCN(Cc3ccccc3)CC2)cc2cc(Br)ccc21 (centres unmarked) [Compound 2] | 11.3 (≈ 19.9 µM) | 212 °C | 3.57 (≈ 6.31 µM)
2 | CCn1c(=O)c(C(c2ccc(Cl)cc2)C2(O)CCN(Cc3ccccc3)CC2)cc2cc(-c3cccnc3)ccc21 (centres unmarked) [Compound 3] | 7.1 (≈ 12.6 µM) | 172 °C | 3.56 (≈ 6.31 µM)
3 | COc1nc2ccc(Br)cc2cc1C(c1ccc(SC)cc1)C1(O)CCNCC1 (centres unmarked) [Compound 9] | 7.58 (≈ 16 µM) | 204 °C | 4.78 (≈ 10.1 µM)
4 | COc1nc2ccc(Br)cc2cc1C(c1ccc(Cl)cc1)C1(O)CCN(C)CC1 (centres unmarked) [Compound 16] | 5.99 (≈ 12.6 µM) | 193 °C | 2.39 (≈ 5.02 µM)
5 | COc1nc2ccc(Br)cc2cc1C(c1ccc(Cl)cc1)C1(O)CCN(Cc2cccc(F)c2)CC1 (centres unmarked) [Compound 17] | 14.3 (≈ 25.1 µM) | 220 °C | 14.3 (≈ 25.1 µM)
6 | COc1nc2ccc(CO)cc2cc1C(c1ccc(Cl)cc1)C1(O)CCN(Cc2ccccc2)CC1 (centres unmarked) [Compound 22] | > 16.3 | 196 °C | 16.3 (≈ 32.4 µM)
7 | COc1nc2ccc(C(=O)Nc3cccnc3)cc2cc1C(c1ccc(Cl)cc1)C1(O)CCN(Cc2ccccc2)CC1 (centres unmarked) [Compound 24] | 8.38 (≈ 14.1 µM) | 146 °C | 7.47 (≈ 12.6 µM)
8 | COc1nc2ccc(Br)cc2cc1C(c1ccc(Cl)cc1)C1(O)CCN(C(=N)N)CC1 (centres unmarked) [Compound 25] | 1.59 (≈ 3.16 µM) | > 250 °C | 6.34 (≈ 12.6 µM)
9 | O=c1[nH]c2ccc(-c3cccnc3)cc2cc1C(c1ccc(Cl)cc1)C1(O)CCNCC1 (centres unmarked) [Compound 26] | > 30.9 | > 250 °C and 250 °C | 3.09 (≈ 6.93 µM)
10 | O=c1[nH]c2ccc(Br)cc2cc1C(c1ccc2ccccc2c1)C1(O)CCN(Cc2ccccc2)CC1 (centres unmarked) [Compound 80] | 4.4 (≈ 7.95 µM) | 249 °C | 
